The values below come from PubChem BioAssay (NCI).

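Cultured in 96-well plates, cells were exposed to test compound for 48 hours across five concentrations. TGI is the concentration that stops growth completely.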 Bounds are passed on as bounds.

Some test systems named below: MOLT-4 leukemia; OVCAR-8 ovarian; A498 renal; HOP-62 NSCLC; SF-268 CNS; SK-MEL-2 melanoma; CCRF-CEM leukemia; HL-60(TB) leukemia; RPMI-8226 leukemia; SK-OV-3 ovarian; SK-MEL-5 melanoma; UO-31 renal; COLO 205 colon; OVCAR-3 ovarian; DU-145 prostate; PC-3 prostate; CAKI-1 renal; HCC-2998 colon; M14 melanoma; SN12C renal.
What all share (test): NCI-60 cell line screen, 48 h

For the compound `[O-]c1c[n+](CC[n+]2cc([O-])on2)no1`, the TGI with MOLT-4 leukemia, with OVCAR-8 ovarian, with A498 renal, in the test with HOP-62 NSCLC, in the test with SF-268 CNS and in the test on SK-MEL-2 melanoma was > 100 µM throughout. Moreover, the TGI in the test with CCRF-CEM leukemia, in the test with HL-60(TB) leukemia, in the test with RPMI-8226 leukemia, in the test with SK-OV-3 ovarian, with SK-MEL-5 melanoma and in the test with UO-31 renal was > 100 µM throughout. Further, the TGI with COLO 205 colon, with OVCAR-3 ovarian, with DU-145 prostate, in the test on PC-3 prostate, with CAKI-1 renal and in the test on HCC-2998 colon was > 100 µM each time. Moreover, the TGI in the test with M14 melanoma and in the test on SN12C renal was > 100 µM throughout.
For the compound `O=Cc1ccc(-c2cccc([N+](=O)[O-])c2)s1`, the TGI was > 100 µM in the test with MOLT-4 leukemia; > 100 µM in the test on OVCAR-8 ovarian; 53.4 µM in the test with A498 renal; > 100 µM with HOP-62 NSCLC; > 100 µM in the test with SF-268 CNS; > 100 µM in the test with SK-MEL-2 melanoma. The TGI in the test with CCRF-CEM leukemia, in the test with HL-60(TB) leukemia, in the test with RPMI-8226 leukemia, with SK-OV-3 ovarian, with SK-MEL-5 melanoma and with UO-31 renal was > 100 µM throughout. The TGI with COLO 205 colon, with OVCAR-3 ovarian, with DU-145 prostate, with PC-3 prostate, in the test on CAKI-1 renal and with HCC-2998 colon was > 100 µM each time. The TGI in the test on M14 melanoma and in the test on SN12C renal was > 100 µM throughout.
As to `CCSC(=O)/C=C1\CN(C(=O)OC(C)(C)C)C1C(=O)OC(C)(C)C` (stereo not given), the TGI in the test with MOLT-4 leukemia is 4.18 µM; in the test with OVCAR-8 ovarian it was 7.85 µM; in the test on A498 renal it was 23.9 µM; in the test on HOP-62 NSCLC, 28.9 µM; with SF-268 CNS, 21.6 µM; in the test on SK-MEL-2 melanoma, 18.4 µM. Besides, the TGI in the test with CCRF-CEM leukemia was 3.97 µM; with HL-60(TB) leukemia, 4.42 µM; in the test on RPMI-8226 leukemia, 4.77 µM; with SK-OV-3 ovarian it was 28.2 µM; in the test with SK-MEL-5 melanoma, 12.6 µM; with UO-31 renal, 10 µM. For the same compound, the TGI with COLO 205 colon was 5.48 µM; in the test on OVCAR-3 ovarian it was 6.13 µM; with DU-145 prostate, 16.3 µM; in the test with PC-3 prostate, 18.1 µM; in the test on CAKI-1 renal it was 13.3 µM; in the test with HCC-2998 colon, 17.2 µM. Further, the TGI in the test with M14 melanoma came out at 3.98 µM; in the test with SN12C renal, 7.06 µM.
With `O=C(NCCN1CCCC1)c1cn2c(ccc3sc4ccccc4c(=O)c32)n1`, the TGI is 7.42 µM in the test with MOLT-4 leukemia; 9.82 µM with OVCAR-8 ovarian; 33.1 µM with A498 renal; 25.8 µM in the test on HOP-62 NSCLC; 30.1 µM in the test with SF-268 CNS; 36 µM in the test with SK-MEL-2 melanoma. Besides, the TGI came to 4.53 µM with CCRF-CEM leukemia; 26.8 µM in the test with HL-60(TB) leukemia; 5.7 µM in the test with RPMI-8226 leukemia; 30 µM in the test with SK-OV-3 ovarian; 31.2 µM in the test on SK-MEL-5 melanoma; 26.4 µM in the test on UO-31 renal. The TGI with COLO 205 colon came to 26.7 µM; in the test on OVCAR-3 ovarian, 29.1 µM; with DU-145 prostate it was 26.3 µM; in the test on PC-3 prostate it was 27.4 µM; with CAKI-1 renal it was 24.2 µM; in the test on HCC-2998 colon it was 18.6 µM. Also, the TGI in the test on M14 melanoma came out at 29.2 µM; in the test with SN12C renal, 26.9 µM.
On to `Clc1ccc(-c2nnc(C34CC5CC(CC(C5)C3)C4)o2)cc1`, for which the TGI in the test with MOLT-4 leukemia, with OVCAR-8 ovarian, with A498 renal, in the test with HOP-62 NSCLC, with SF-268 CNS and in the test on SK-MEL-2 melanoma was > 100 µM throughout. For the same compound, the TGI with CCRF-CEM leukemia is > 100 µM; in the test with HL-60(TB) leukemia, > 100 µM; in the test with RPMI-8226 leukemia it was > 100 µM; with SK-OV-3 ovarian, > 100 µM; in the test with SK-MEL-5 melanoma it was > 100 µM; with UO-31 renal, 14.6 µM. The TGI with COLO 205 colon, in the test on OVCAR-3 ovarian, with DU-145 prostate, with PC-3 prostate, with CAKI-1 renal and in the test on HCC-2998 colon was > 100 µM throughout. For the same compound, the TGI in the test with M14 melanoma and in the test with SN12C renal was > 100 µM in each case.
`Clc1ccc(-c2nc3ccc(C45CC6CC(CC(C6)C4)C5)cc3[nH]2)cc1`: the TGI in the test on MOLT-4 leukemia was > 100 µM; with OVCAR-8 ovarian it was > 100 µM; with A498 renal it was > 100 µM; with HOP-62 NSCLC, > 77 µM; in the test with SF-268 CNS, > 100 µM; in the test with SK-MEL-2 melanoma, > 100 µM. Also, the TGI in the test with CCRF-CEM leukemia is > 100 µM; with HL-60(TB) leukemia, > 100 µM; in the test with RPMI-8226 leukemia it was > 100 µM; in the test with SK-OV-3 ovarian, > 100 µM; in the test on SK-MEL-5 melanoma, 60.4 µM; with UO-31 renal it was > 100 µM. The TGI with COLO 205 colon is 24.3 µM; in the test with OVCAR-3 ovarian, > 100 µM; in the test with DU-145 prostate, > 100 µM; in the test with PC-3 prostate, > 100 µM; with CAKI-1 renal it was > 100 µM; with HCC-2998 colon it was > 77.7 µM. Besides, the TGI in the test with M14 melanoma and in the test with SN12C renal was > 100 µM in each case.
In the case of `O/N=C1\CCc2cc3c(cc21)CCC3`, the TGI in the test on MOLT-4 leukemia, in the test with OVCAR-8 ovarian, with A498 renal, in the test with HOP-62 NSCLC, with SF-268 CNS and in the test with SK-MEL-2 melanoma was > 100 µM in each case. Moreover, the TGI in the test on CCRF-CEM leukemia, with HL-60(TB) leukemia, with RPMI-8226 leukemia, in the test on SK-OV-3 ovarian, in the test with SK-MEL-5 melanoma and with UO-31 renal was > 100 µM throughout. Besides, the TGI in the test on COLO 205 colon, in the test with OVCAR-3 ovarian, in the test with DU-145 prostate, with PC-3 prostate, in the test on CAKI-1 renal and in the test with HCC-2998 colon was > 100 µM each time. The TGI with M14 melanoma and in the test on SN12C renal was > 100 µM throughout.
